Data taken from PubChem BioAssay (NCI).
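Compound exposure: 48 hours, 5 concentrations, 96-well plates. TGI marks complete inhibition of growth.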

What was measured:
Test in all cases: growth of human tumour cells (NCI), 48 h
NCI-H460 lung = system: NCI-H460 lung
M14 melanoma = system: M14 melanoma
MOLT-4 leukemia = system: MOLT-4 leukemia
RPMI-8226 leukemia = system: RPMI-8226 leukemia
SNB-75 CNS = system: SNB-75 CNS
HL-60(TB) leukemia = system: HL-60(TB) leukemia
HOP-62 NSCLC = system: HOP-62 NSCLC
OVCAR-3 ovarian = system: OVCAR-3 ovarian
UACC-257 melanoma = system: UACC-257 melanoma
OVCAR-8 ovarian = system: OVCAR-8 ovarian
ACHN renal = system: ACHN renal
HCT-116 colon = system: HCT-116 colon
SK-OV-3 ovarian = system: SK-OV-3 ovarian
HOP-92 NSCLC = system: HOP-92 NSCLC
RXF 393 renal = system: RXF 393 renal
SR leukemia = system: SR leukemia

Measured: TGI

CCCOC(=O)C1CCC(=O)N1C(=O)C(C)Cl (stereo not drawn)
> 100 µM: NCI-H460 lung | M14 melanoma | MOLT-4 leukemia | RPMI-8226 leukemia | SNB-75 CNS | HL-60(TB) leukemia | HOP-62 NSCLC | OVCAR-3 ovarian | UACC-257 melanoma | OVCAR-8 ovarian | ACHN renal | HCT-116 colon | SK-OV-3 ovarian | HOP-92 NSCLC

Cc1ccc(N=NC2S/C(=C(\C#N)c3nc4ccccc4[nH]3)N(c3ccccc3)C2=O)cc1 (stereo not drawn)
82.5 µM: SNB-75 CNS
81.1 µM: HOP-62 NSCLC
> 100 µM: NCI-H460 lung | M14 melanoma | HL-60(TB) leukemia | OVCAR-3 ovarian | UACC-257 melanoma | OVCAR-8 ovarian | ACHN renal | HCT-116 colon | SK-OV-3 ovarian | HOP-92 NSCLC
81.5 µM: RXF 393 renal

N#CC(c1nc2ccccc2s1)c1ncnc(Cl)c1[N+](=O)[O-] (stereo not drawn)
> 100 µM: MOLT-4 leukemia | RPMI-8226 leukemia | SNB-75 CNS | ACHN renal | SK-OV-3 ovarian
47.8 µM: OVCAR-3 ovarian
47.1 µM: NCI-H460 lung
34.3 µM: M14 melanoma
97.2 µM: HOP-62 NSCLC
26.4 µM: HCT-116 colon
41 µM: UACC-257 melanoma
34.7 µM: OVCAR-8 ovarian
42.8 µM: HOP-92 NSCLC
89 µM: RXF 393 renal

Nc1ccc2nc(NCc3ccc(F)cc3)cnc2c1
> 100 µM: NCI-H460 lung | M14 melanoma | MOLT-4 leukemia | RPMI-8226 leukemia | SNB-75 CNS | RXF 393 renal | HL-60(TB) leukemia | HOP-62 NSCLC | OVCAR-3 ovarian | OVCAR-8 ovarian | SR leukemia | ACHN renal | HCT-116 colon

N#CCCN(c1ccc(/C=C2\N=C(Cc3ccccc3)OC2=O)cc1)S(=O)(=O)c1ccccc1
> 100 µM: NCI-H460 lung | M14 melanoma | MOLT-4 leukemia | RPMI-8226 leukemia | SNB-75 CNS | RXF 393 renal | HL-60(TB) leukemia | HOP-62 NSCLC | OVCAR-3 ovarian | UACC-257 melanoma | OVCAR-8 ovarian | ACHN renal | HCT-116 colon | SK-OV-3 ovarian

CCCCCCCc1cc(OC(=O)c2c(C)cc(OC)cc2O)cc(O)c1C(=O)O
74 µM: RPMI-8226 leukemia
77.9 µM: OVCAR-8 ovarian
69.2 µM: SK-OV-3 ovarian
35.2 µM: HOP-62 NSCLC
36.1 µM: SNB-75 CNS
36 µM: NCI-H460 lung
52.2 µM: RXF 393 renal
36.6 µM: M14 melanoma
62.8 µM: ACHN renal
87.7 µM: UACC-257 melanoma
88.3 µM: MOLT-4 leukemia
28.7 µM: OVCAR-3 ovarian
41.8 µM: HOP-92 NSCLC
68.3 µM: HL-60(TB) leukemia

CCOc1ccc(NC(=O)C2=C(C)NC(C)=C(C(=O)Nc3ccc(OCC)cc3)C2c2ccc(O)c(OC)c2)cc1
92.9 µM: HOP-62 NSCLC
59.2 µM: SNB-75 CNS
53.9 µM: HOP-92 NSCLC
> 100 µM: NCI-H460 lung | M14 melanoma | MOLT-4 leukemia | RPMI-8226 leukemia | RXF 393 renal | HL-60(TB) leukemia | OVCAR-3 ovarian | UACC-257 melanoma | OVCAR-8 ovarian | ACHN renal | SK-OV-3 ovarian

Cc1ccccc1C1OC(=O)c2ccccc21 (stereo not drawn)
> 100 µM: NCI-H460 lung | M14 melanoma | MOLT-4 leukemia | SNB-75 CNS | RXF 393 renal | HL-60(TB) leukemia | HOP-62 NSCLC | OVCAR-3 ovarian | OVCAR-8 ovarian | SR leukemia | ACHN renal | HCT-116 colon | SK-OV-3 ovarian

N#Cc1c2c(c(Nc3cccc(C(F)(F)F)c3)n3c1nc1ccccc13)CCC2
> 100 µM: MOLT-4 leukemia | RPMI-8226 leukemia | SNB-75 CNS | RXF 393 renal | HOP-62 NSCLC | OVCAR-3 ovarian | UACC-257 melanoma | OVCAR-8 ovarian | ACHN renal | HCT-116 colon | SK-OV-3 ovarian | HOP-92 NSCLC

O=C1[C@@H]2C(c3ccc(Cl)cc3Cl)=NO[C@@H]2C(=O)N1c1ccc(Cc2ccc(N3C(=O)[C@H]4C(c5ccc(Cl)cc5Cl)=NO[C@H]4C3=O)cc2)cc1
> 100 µM: M14 melanoma | MOLT-4 leukemia | RPMI-8226 leukemia | SNB-75 CNS | HOP-62 NSCLC | OVCAR-3 ovarian | UACC-257 melanoma | OVCAR-8 ovarian | SK-OV-3 ovarian
48.8 µM: HL-60(TB) leukemia
41.4 µM: HOP-92 NSCLC
68.8 µM: RXF 393 renal

NC(=O)c1cccc(C2OC(COP(=O)(O)O)C(O)C2O)c1 (stereo not drawn)
> 50 µM: NCI-H460 lung | M14 melanoma | MOLT-4 leukemia | RPMI-8226 leukemia | SNB-75 CNS | RXF 393 renal | HL-60(TB) leukemia | HOP-62 NSCLC | OVCAR-3 ovarian | UACC-257 melanoma | OVCAR-8 ovarian | ACHN renal | HCT-116 colon | SK-OV-3 ovarian

O=C(CC(=O)Nc1cccc(Cl)c1)NNCC(=O)Nc1nnc(-c2ccccc2)s1
86.6 µM: RPMI-8226 leukemia
77.3 µM: SK-OV-3 ovarian
> 100 µM: NCI-H460 lung | M14 melanoma | MOLT-4 leukemia | HL-60(TB) leukemia | HOP-62 NSCLC | OVCAR-3 ovarian | UACC-257 melanoma | OVCAR-8 ovarian | SR leukemia | ACHN renal | HCT-116 colon
33.8 µM: SNB-75 CNS

Nc1nc(NCCO)c(N=O)c(=O)[nH]1
> 100 µM: NCI-H460 lung | M14 melanoma | RPMI-8226 leukemia | SNB-75 CNS | RXF 393 renal | HL-60(TB) leukemia | HOP-62 NSCLC | OVCAR-3 ovarian | UACC-257 melanoma | OVCAR-8 ovarian | ACHN renal | HCT-116 colon | SK-OV-3 ovarian | HOP-92 NSCLC

COc1ccc(/C(Cl)=C(/c2ccc(O)cc2)c2ccc(OCCN(C)C)cc2)cc1
18.4 µM: RXF 393 renal
26.7 µM: HOP-62 NSCLC
23.3 µM: SNB-75 CNS
26.3 µM: SK-OV-3 ovarian
26 µM: NCI-H460 lung | HL-60(TB) leukemia
4.22 µM: M14 melanoma
27.8 µM: ACHN renal
28.8 µM: OVCAR-3 ovarian
28.9 µM: OVCAR-8 ovarian
21.6 µM: RPMI-8226 leukemia
9.09 µM: UACC-257 melanoma
10.6 µM: SR leukemia
